Experimental data published in ChEMBL document CHEMBL1151524, “Synthesis and evaluation of pyrazolo[3,4-b]quinoline ribofuranosides and their derivatives as inhibitors of oncogenic Ras” (Bioorg Med Chem Lett, 1996).

Key:
[1] = molecular target: T1, GTPase HRas (Homo sapiens, UniProt P01112); test: Inhibition of nucleotide exchange process of oncogenic Ras in vitro
[2] = molecular target: T1, GTPase HRas; test: Inhibition of nucleotide exchange process of oncogenic Ras at concentration 50 uM
[3] = molecular target: T1, GTPase HRas; test: In vitro for inhibition of nucleotide exchange process of oncogenic Ras

T1 sequence (P01112 whole entry, looked up): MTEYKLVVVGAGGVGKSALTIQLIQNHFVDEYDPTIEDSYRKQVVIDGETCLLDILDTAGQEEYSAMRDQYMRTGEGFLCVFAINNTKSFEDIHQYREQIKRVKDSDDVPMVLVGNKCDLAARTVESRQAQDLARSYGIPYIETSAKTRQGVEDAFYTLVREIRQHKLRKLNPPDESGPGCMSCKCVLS

Structure (SMILES) | IC50 [1] | inhibition [2] | other results
COc1ccc2nc3c(c(C)nn3[C@H]3CN(S(=O)(=O)c4ccccc4)C[C@@H](CO)O3)c(Cl)c2c1 | 12 µM | – | –
COc1ccc2nc3c(c(C)nn3[C@H]3CN(S(=O)(=O)c4ccc([N+](=O)[O-])cc4)C[C@@H](CO[Si](C)(C)C(C)(C)C)O3)c(Cl)c2c1 | 5 µM | – | –
COc1ccc2nc3c(c(C)nn3[C@@H]3O[C@H](COC(=O)c4cccnc4)[C@@H](OC(=O)c4cccnc4)[C@H]3OC(=O)c3cccnc3)c(Cl)c2c1 | – | 33% | –
COc1ccc2nc3c(c(C)nn3[C@H]3CN(Sc4ccccc4[N+](=O)[O-])C[C@@H](CO[Si](C)(C)C(C)(C)C)O3)c(Cl)c2c1 | 1 µM | – | –
COc1ccc2nc3c(c(C)nn3[C@@H]3O[C@H](COC(=O)Cc4ccccc4)[C@@H](OC(=O)Cc4ccccc4)[C@H]3OC(=O)Cc3ccccc3)c(Cl)c2c1 | – | 62% | –
CCOC(=O)/C=C/C[C@@H]1CN(Sc2ccccc2[N+](=O)[O-])C[C@H](n2nc(C)c3c(Cl)c4cc(OC)ccc4nc32)O1 | 16 µM | – | –
COc1ccc(C(=O)OC[C@H]2O[C@@H](n3nc(C)c4c(Cl)c5cc(OC)ccc5nc43)[C@H](OC(=O)c3ccc(OC)cc3)[C@@H]2OC(=O)c2ccc(OC)cc2)cc1 | – | 44% | –
COc1ccc2nc3c(c(C)nn3[C@H]3CNC[C@@H](CO)O3)c(Cl)c2c1 | – | 0% | –
COc1ccc2nc3c(c(C)nn3[C@@H]3O[C@H](OC(O)CC(=O)c4ccccc4)[C@H]4OC(=S)O[C@H]43)c(Cl)c2c1 (stereo not given in full) | 1.5 µM | – | –
COc1ccc2nc3c(c(C)nn3[C@@H]3O[C@H](OCc4ccccc4)[C@@H](OCc4ccccc4)[C@H]3OCc3ccccc3)c(Cl)c2c1 | – | 35% | –
COc1ccc2nc3c(c(C)nn3[C@H]3C=C[C@@H](OC(O)CC(=O)c4ccccc4)O3)c(Cl)c2c1 (stereo not given in full) | – | 48% | –
COc1ccc2nc3c(c(C)nn3[C@H]3CN(Sc4ccc([N+](=O)[O-])cc4)C[C@@H](CO[Si](C)(C)C(C)(C)C)O3)c(Cl)c2c1 | 50 µM | – | –
COc1ccc2nc3c(c(C)nn3[C@H]3CN(Sc4ccccc4[N+](=O)[O-])C[C@@H](CO)O3)c(Cl)c2c1 | 14 µM | – | –
COc1ccc2nc3c(c(C)nn3[C@@H]3O[C@H](COC(=O)c4ccccc4)[C@@H](O)[C@H]3O)c(Cl)c2c1 | – | 16% | –
COc1ccc2nc3c(c(C)nn3[C@H]3CN(S(=O)(=O)c4ccc([N+](=O)[O-])cc4)C[C@@H](CO)O3)c(Cl)c2c1 | 8 µM | – | –
COc1ccc2nc3c(c(C)nn3[C@H]3C=C[C@@H](O/C=C/C(=O)c4ccccc4)O3)c(Cl)c2c1 | 35 µM | – | –
COc1ccc2nc3c(c(C)nn3[C@H]3CN(Sc4ccc([N+](=O)[O-])cc4)C[C@@H](C/C=C/C(C)=O)O3)c(Cl)c2c1 | 3 µM | – | –
COc1ccc2nc3c(c(C)nn3[C@H]3CN(S(=O)(=O)c4ccccc4)C[C@@H](CO[Si](C)(C)C(C)(C)C)O3)c(Cl)c2c1 | 14 µM | – | –
COc1ccc2nc3c(c(C)nn3[C@@H]3O[C@H](COC(=O)c4ccccc4)[C@@H](OCc4ccccc4)[C@H]3OCc3ccccc3)c(Cl)c2c1 | – | 53% | –
COc1ccc2nc3c(c(C)nn3[C@@H]3O[C@H](COC(=O)C(C)C)[C@@H](OC(=O)C(C)C)[C@H]3OC(=O)C(C)C)c(Cl)c2c1 | – | 33% | –

Structure (SMILES) | IC50 [1] | inhibition [2] | other results
COc1ccc2nc3c(c(C)nn3[C@@H]3O[C@H](COC(=O)c4ccoc4)[C@@H](OC(=O)c4ccoc4)[C@H]3OC(=O)c3ccoc3)c(Cl)c2c1 | – | 49% | –
COc1ccc2nc3c(c(C)nn3[C@@H]3O[C@H](O/C=C/C(=O)c4ccccc4)[C@H]4OC(C)(C)O[C@H]43)c(Cl)c2c1 | – | 53% | –
COc1ccc2nc3c(c(C)nn3[C@H]3CC[C@@H](COC(=O)c4ccccc4)O3)c(Cl)c2c1 | – | 38% | –
COc1ccc2nc3c(c(C)nn3[C@H]3CN(S(=O)(=O)c4ccccc4)C[C@@H](COC(=O)c4ccccc4)O3)c(Cl)c2c1 | – | 47% | –
COc1ccc2nc3c(c(C)nn3[C@H]3CN(S(=O)(=O)c4ccc(NC(C)=O)cc4)C[C@@H](CO[Si](C)(C)C(C)(C)C)O3)c(Cl)c2c1 | 27 µM | – | –
COc1ccc2nc3c(c(C)nn3[C@@H]3O[C@H](O/C=C/C(=O)c4ccccc4)[C@@H](O)[C@H]3O)c(Cl)c2c1 | 10 µM | – | –
COc1ccc2nc3c(c(C)nn3[C@H]3CN(S(=O)(=O)c4ccc([N+](=O)[O-])cc4)C[C@@H](C/C=C/C(=O)c4ccccc4)O3)c(Cl)c2c1 | 7 µM | – | –
COc1ccc2nc3c(c(C)nn3[C@@H]3O[C@H](COC(=O)c4ccccc4)[C@H]4OC(=S)O[C@H]43)c(Cl)c2c1 | 15 µM | – | –
COc1ccc2nc3c(c(C)nn3[C@@H]3O[C@H](COC(=O)c4ccc([N+](=O)[O-])cc4)[C@@H](OC(=O)c4ccc([N+](=O)[O-])cc4)[C@H]3OC(=O)c3ccc([N+](=O)[O-])cc3)c(Cl)c2c1 | – | 59% | –
COc1ccc2nc3c(c(C)nn3[C@@H]3O[C@H](COC(=O)c4ccco4)[C@@H](OC(=O)c4ccco4)[C@H]3OC(=O)c3ccco3)c(Cl)c2c1 | 10.5 µM | – | –
COc1ccc2nc3c(c(C)nn3[C@H]3CN(Sc4ccc([N+](=O)[O-])cc4)C[C@@H](C/C=C/C(=O)c4ccccc4)O3)c(Cl)c2c1 | 7.4 µM | – | –
COc1ccc2nc3c(c(C)nn3[C@@H]3O[C@H](COC(=O)c4ccccc4)[C@@H](OC(=O)c4ccccc4)[C@H]3OC(=O)c3ccccc3)c(Cl)c2c1 | – | – | IC50 [3]: 10 µM
COc1ccc2nc3c(c(C)nn3[C@@H]3O[C@H](COC(=O)c4ccccc4)[C@@H](OC(C)=O)[C@H]3OC(C)=O)c(Cl)c2c1 | – | 44% | –
COc1ccc2nc3c(c(C)nn3[C@H]3C=C[C@@H](OCCC(=O)c4ccccc4)O3)c(Cl)c2c1 | – | 25% | –
COc1ccc2nc3c(c(C)nn3[C@H]3C=C[C@@H](COC(=O)c4ccccc4)O3)c(Cl)c2c1 | 80 µM | – | –
COc1ccc2nc3c(c(C)nn3[C@H]3CN(Sc4ccc([N+](=O)[O-])cc4)C[C@@H](CO)O3)c(Cl)c2c1 | 6.7 µM | – | –
COc1ccc2nc3c(c(C)nn3[C@H]3CN(Sc4ccccc4[N+](=O)[O-])C[C@@H](C/C=C/C(C)=O)O3)c(Cl)c2c1 | – | 88% | –
COc1ccc2nc3c(c(C)nn3[C@H]3CN(Sc4ccccc4[N+](=O)[O-])C[C@@H](C/C=C/C(=O)c4ccccc4)O3)c(Cl)c2c1 | 4.7 µM | – | –
COc1ccc2nc3c(c(C)nn3[C@@H]3O[C@H](COC(C)=O)[C@@H](OC(C)=O)[C@H]3OC(C)=O)c(Cl)c2c1 | – | 3% | –
CCOC(=O)/C=C/C[C@@H]1CN(Sc2ccc([N+](=O)[O-])cc2)C[C@H](n2nc(C)c3c(Cl)c4cc(OC)ccc4nc32)O1 | – | 64% | –
